Results from US20230085307A1, “PYRIDAZINONE COMPOUND AND HERBICIDE” (NISSAN CHEMICAL CORPORATION, priority 2019, published 2023).

Key:
[1] = system: barnyard grass; assay: Test Example 3: herbicidal effect by foliage application, Wagner pot (Table 18, symbol H); type: in vivo, barnyard grass (Echinochloa crus-galli); conditions: 320 g/ha
In short: (§1)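 Plants were sown in alluvial soil held under 0.1–0.5 cm standing water and grown 14 days in a greenhouse at 25–30 °C. An emulsifiable formulation, water-diluted to the set dose, was then sprayed onto the foliage, and effects were scored three weeks later using previously defined criteria.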

[2] = system: southern crabgrass; assay: Test Example 5: herbicidal effect by foliage application, plastic box (Table 20, symbol F); type: in vivo, southern crabgrass (Digitaria ciliaris); conditions: 320 g/ha, foliage application after 14-day growth, evaluated three weeks after application
In short: (§2)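 Foliar spray test: emulsion formulation diluted in water to a set application rate, sprayed onto 14-day-old plants raised in diluvial soil at 25° C to 30° C under glass. Both herbicidal effect and crop effect rated visually three weeks later.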

[3] = system: blackgrass; assay: Test Example 5: herbicidal effect by foliage application, plastic box (Table 20, symbol J); type: in vivo, blackgrass (Alopecurus myosuroides); conditions: 320 g/ha, foliage application after 14-day growth, evaluated three weeks after application
In short: as §2

[4] = system: persian speedwell; assay: Test Example 4: herbicidal effect by soil treatment (Table 19, symbol R); type: in vivo, Persian speedwell (Veronica persica); conditions: amount of applied herbicide 320 g/ha
In short: (§3)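 Step 1: sow seeds in sterilized diluvial soil, cover ~1.5 cm. Step 2: spray diluted emulsion onto soil surface at predetermined rate. Step 3: greenhouse, 25–30° C, three weeks. Step 4: grade effect on each plant by earlier criteria.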

[5] = system: windgrass; assay: Test Example 5: herbicidal effect by foliage application, plastic box (Table 20, symbol L); type: in vivo, windgrass (Apera spica-venti); conditions: 320 g/ha, foliage application after 14-day growth, evaluated three weeks after application
In short: as §2

[6] = system: Italian ryegrass; assay: Test Example 5: herbicidal effect by foliage application, plastic box (Table 20, symbol K); type: in vivo, Italian ryegrass (Lolium multiflorum); conditions: 320 g/ha, foliage application after 14-day growth, evaluated three weeks after application
In short: as §2

[7] = system: barnyard grass; assay: Test Example 4: herbicidal effect by soil treatment (Table 19, symbol H); type: in vivo, barnyard grass (Echinochloa crus-galli); conditions: amount of applied herbicide 320 g/ha
In short: as §3

[8] = system: lambsquarters; assay: Test Example 4: herbicidal effect by soil treatment (Table 19, symbol O); type: in vivo, lambsquarters (Chenopodium album); conditions: amount of applied herbicide 320 g/ha
In short: as §3

[9] = system: rice flat sedge; assay: Test Example 3: herbicidal effect by foliage application, Wagner pot (Table 18, symbol E); type: in vivo, rice flat sedge (Cyperus iria); conditions: 320 g/ha
In short: as §1

[10] = system: wild oat; assay: Test Example 4: herbicidal effect by soil treatment (Table 19, symbol I); type: in vivo, wild oat (Avena fatua); conditions: amount of applied herbicide 320 g/ha
In short: as §3

[11] = system: windgrass; assay: Test Example 4: herbicidal effect by soil treatment (Table 19, symbol L); type: in vivo, windgrass (Apera spica-venti); conditions: amount of applied herbicide 320 g/ha
In short: as §3

[12] = system: lambsquarters; assay: Test Example 5: herbicidal effect by foliage application, plastic box (Table 20, symbol O); type: in vivo, lambsquarters (Chenopodium album); conditions: 320 g/ha, foliage application after 14-day growth, evaluated three weeks after application
In short: as §2

[13] = system: Italian ryegrass; assay: Test Example 4: herbicidal effect by soil treatment (Table 19, symbol K); type: in vivo, Italian ryegrass (Lolium multiflorum); conditions: amount of applied herbicide 320 g/ha
In short: as §3

[14] = system: redroot pigweed; assay: Test Example 4: herbicidal effect by soil treatment (Table 19, symbol N); type: in vivo, redroot pigweed (Amaranthus retroflexus); conditions: amount of applied herbicide 320 g/ha
In short: as §3

[15] = system: wild oat; assay: Test Example 5: herbicidal effect by foliage application, plastic box (Table 20, symbol I); type: in vivo, wild oat (Avena fatua); conditions: 320 g/ha, foliage application after 14-day growth, evaluated three weeks after application
In short: as §2

[16] = system: false cleavers; assay: Test Example 4: herbicidal effect by soil treatment (Table 19, symbol Q); type: in vivo, false cleavers (Galium spurium); conditions: amount of applied herbicide 320 g/ha
In short: as §3

[17] = system: green foxtail; assay: Test Example 5: herbicidal effect by foliage application, plastic box (Table 20, symbol G); type: in vivo, green foxtail (Setaria viridis); conditions: 320 g/ha, foliage application after 14-day growth, evaluated three weeks after application
In short: as §2

[18] = system: green foxtail; assay: Test Example 4: herbicidal effect by soil treatment (Table 19, symbol G); type: in vivo, green foxtail (Setaria viridis); conditions: amount of applied herbicide 320 g/ha
In short: as §3

[19] = system: southern crabgrass; assay: Test Example 4: herbicidal effect by soil treatment (Table 19, symbol F); type: in vivo, southern crabgrass (Digitaria ciliaris); conditions: amount of applied herbicide 320 g/ha
In short: as §3

[20] = system: velvetleaf; assay: Test Example 4: herbicidal effect by soil treatment (Table 19, symbol M); type: in vivo, velvetleaf (Abutilon theophrasti); conditions: amount of applied herbicide 320 g/ha
In short: as §3

[21] = system: Chinese sprangletop; assay: Test Example 3: herbicidal effect by foliage application, Wagner pot (Table 18, symbol D); type: in vivo, chinese sprangletop (Leptochloa chinensis); conditions: 320 g/ha
In short: as §1

[22] = system: barnyard grass; assay: Test Example 5: herbicidal effect by foliage application, plastic box (Table 20, symbol H); type: in vivo, barnyard grass (Echinochloa crus-galli); conditions: 320 g/ha, foliage application after 14-day growth, evaluated three weeks after application
In short: as §2

[23] = system: chickweed; assay: Test Example 4: herbicidal effect by soil treatment (Table 19, symbol P); type: in vivo, common chickweed (Stellaria media); conditions: amount of applied herbicide 320 g/ha
In short: as §3

[24] = system: persian speedwell; assay: Test Example 5: herbicidal effect by foliage application, plastic box (Table 20, symbol R); type: in vivo, Persian speedwell (Veronica persica); conditions: 320 g/ha, foliage application after 14-day growth, evaluated three weeks after application
In short: as §2

[25] = system: oval-leafed pondweed; assay: Test Example 1: herbicidal activity, application before weed generation under submerged conditions (Table 16, symbol C); type: in vivo, oval-leafed pondweed (Monochoria vaginalis); conditions: amount of applied herbicide 320 g/ha
In short: (§4)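 Emulsion formulation, water-diluted to set dose, was put onto the flooded surface (4 cm depth, alluvial soil) the same day weeds were sown and 2.5-leaf rice transplanted. After 3 weeks at 25-30 °C under glass, each species was rated 0 (≤5% kill) to 5 (≥90% kill).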

[26] = system: Japanese bulrush; assay: Test Example 1: herbicidal activity, application before weed generation under submerged conditions (Table 16, symbol B); type: in vivo, Japanese bulrush (Schoenoplectus juncoides); conditions: amount of applied herbicide 320 g/ha
In short: as §4

[27] = system: velvetleaf; assay: Test Example 5: herbicidal effect by foliage application, plastic box (Table 20, symbol M); type: in vivo, velvetleaf (Abutilon theophrasti); conditions: 320 g/ha, foliage application after 14-day growth, evaluated three weeks after application
In short: as §2

[28] = system: late watergrass; assay: Test Example 1: herbicidal activity, application before weed generation under submerged conditions (Table 16, symbol A); type: in vivo, late watergrass (Echinochloa oryzicola); conditions: amount of applied herbicide 320 g/ha
In short: as §4

[29] = system: chickweed; assay: Test Example 5: herbicidal effect by foliage application, plastic box (Table 20, symbol P); type: in vivo, common chickweed (Stellaria media); conditions: 320 g/ha, foliage application after 14-day growth, evaluated three weeks after application
In short: as §2

[30] = system: blackgrass; assay: Test Example 4: herbicidal effect by soil treatment (Table 19, symbol J); type: in vivo, blackgrass (Alopecurus myosuroides); conditions: amount of applied herbicide 320 g/ha
In short: as §3

[31] = system: redroot pigweed; assay: Test Example 5: herbicidal effect by foliage application, plastic box (Table 20, symbol N); type: in vivo, redroot pigweed (Amaranthus retroflexus); conditions: 320 g/ha, foliage application after 14-day growth, evaluated three weeks after application
In short: as §2

Structure (SMILES): CSc1ccc(-c2sc3c(F)cccc3c2-c2c(O)c(C)nn(C)c2=O)cc1 [4-050]
- herbicidal effect on barnyard grass (H) [1]: 5 (Herbicidal rate of 90% or more (almost completely withered))
- herbicidal effect on F: southern crabgrass (evaluation grade 0-5) [2]: 2 (Herbicidal rate of 20% or more and less than 40%)
- herbicidal effect on J: blackgrass (evaluation grade 0-5) [3]: 3 (Herbicidal rate of 40% or more and less than 70%)
- Herbicidal effect by soil treatment, R: persian speedwell [4]: 4 (Herbicidal rate of 70% or more and less than 90%)
- herbicidal effect on L: windgrass (evaluation grade 0-5) [5]: 5 (Herbicidal rate of 90% or more (almost completely withered))
- herbicidal effect on K: Italian ryegrass (evaluation grade 0-5) [6]: 4 (Herbicidal rate of 70% or more and less than 90%)
- Herbicidal effect by soil treatment, H: barnyard grass [7]: 2 (Herbicidal rate of 20% or more and less than 40%)
- Herbicidal effect by soil treatment, O: lambsquarters [8]: 3 (Herbicidal rate of 40% or more and less than 70%)
- herbicidal effect on rice flat sedge (E) [9]: 4 (Herbicidal rate of 70% or more and less than 90%)
- Herbicidal effect by soil treatment, I: wild oat [10]: 0 (Herbicidal rate of 5% or less (almost no effect))
- Herbicidal effect by soil treatment, L: windgrass [11]: 0 (Herbicidal rate of 5% or less (almost no effect))
- herbicidal effect on O: lambsquarters (evaluation grade 0-5) [12]: 5 (Herbicidal rate of 90% or more (almost completely withered))
- Herbicidal effect by soil treatment, K: Italian ryegrass [13]: 1 (Herbicidal rate of 5% or more and less than 20%)
- Herbicidal effect by soil treatment, N: redroot pigweed [14]: 4 (Herbicidal rate of 70% or more and less than 90%)
- herbicidal effect on I: wild oat (evaluation grade 0-5) [15]: 1 (Herbicidal rate of 5% or more and less than 20%)
- Herbicidal effect by soil treatment, Q: false cleavers [16]: 0 (Herbicidal rate of 5% or less (almost no effect))
- herbicidal effect on G: green foxtail (evaluation grade 0-5) [17]: 5 (Herbicidal rate of 90% or more (almost completely withered))
- Herbicidal effect by soil treatment, G: green foxtail [18]: 3 (Herbicidal rate of 40% or more and less than 70%)
- Herbicidal effect by soil treatment, F: southern crabgrass [19]: 2 (Herbicidal rate of 20% or more and less than 40%)
- Herbicidal effect by soil treatment, M: velvetleaf [20]: 3 (Herbicidal rate of 40% or more and less than 70%)
- herbicidal effect on Chinese sprangletop (D) [21]: 4 (Herbicidal rate of 70% or more and less than 90%)
- herbicidal effect on H: barnyard grass (evaluation grade 0-5) [22]: 5 (Herbicidal rate of 90% or more (almost completely withered))
- Herbicidal effect by soil treatment, P: chickweed [23]: 4 (Herbicidal rate of 70% or more and less than 90%)
- herbicidal effect on R: persian speedwell (evaluation grade 0-5) [24]: 5 (Herbicidal rate of 90% or more (almost completely withered))
- Herbicidal effect, C: oval-leafed pondweed [25]: 0 (Herbicidal rate of 5% or less (almost no effect))
- Herbicidal effect, B: Japanese bulrush [26]: 0 (Herbicidal rate of 5% or less (almost no effect))
- herbicidal effect on M: velvetleaf (evaluation grade 0-5) [27]: 5 (Herbicidal rate of 90% or more (almost completely withered))
- Herbicidal effect, A: late watergrass [28]: 3 (Herbicidal rate of 40% or more and less than 70%)
- herbicidal effect on P: chickweed (evaluation grade 0-5) [29]: 5 (Herbicidal rate of 90% or more (almost completely withered))
- Herbicidal effect by soil treatment, J: blackgrass [30]: 0 (Herbicidal rate of 5% or less (almost no effect))
- herbicidal effect on N: redroot pigweed (evaluation grade 0-5) [31]: 5 (Herbicidal rate of 90% or more (almost completely withered))
